Test results from ChEMBL document CHEMBL2331123, “Deuterated clopidogrel analogues as a new generation of antiplatelet agents” (ACS Med Chem Lett, 2013).

Assays:
Rattus norvegicus [1] = experiment: Inhibition of ADP-induced platelet aggregation in Wistar rat blood at 10 mg/kg, po after 2 hrs by aggregometer analysis relative to vehicle-treated control
Rattus norvegicus [2] = experiment: Inhibition of ADP-induced platelet aggregation in Wistar rat blood at 10 mg/kg, po after 5 mins by aggregometer analysis relative to vehicle-treated control

Structure (SMILES) | aggregation at 10 mg/kg (Rattus norvegicus [1]) [%] | aggregation at 10 mg/kg (Rattus norvegicus [2]) [%]
COC(=O)C(c1ccccc1Cl)N1CCc2sccc2C1 (stereo not drawn) | 60.4 | 29.4
[3H]C1([3H])c2sccc2CN(C(C(=O)OC)c2ccccc2Cl)C1([3H])[3H] (stereo not drawn) | 49.1 | 7.3
[3H]C1([3H])c2ccsc2CCN1C(C(=O)OC)c1ccccc1Cl (stereo not drawn) | 50.4 | 12.9
[3H]C1([3H])c2ccsc2C([3H])([3H])C([3H])([3H])N1C(C(=O)OC)c1ccccc1Cl (stereo not drawn) | 50.6 | 7
